Here are results for 1 compound from patent EP2292587A1, “PHARMACEUTICAL COMPOSITION FOR INHIBITING THE TRANSCRIPTION FACTOR INDUCIBLE BY HYPOXIA, MODULATORS OF PATHOLOGICAL PROCESSES OF ANGIOGENESIS, ONCOGENESIS, INFLAMMATION, APOPTOSIS, AND CELLULAR THERAPY” (Fundacion De La Comunidad Valenciana Centro De …, priority 2008, dated 2009).

The test system of experiment [1] is histone deacetylase (HDAC). The experiment can be described thus: HDAC Fluorimetric Cellular Activity Assay, HeLa cell extracts. It counts as cell-based. Particulars: different concentrations. Here is the method:
Since FM19G11 was capable of affecting the degree of acetylation of histone H3 and therefore the conformation of chromatin, it was evaluated if FM19G11 favored the transfer of acetyl groups to histone H3 or, on the contrary, prevented histone H3 from being deacetylated. Both effects would cause an increase of the degree of acetylation of histone H3. Immunoprecipitation assays were performed with an antibody recognizing acetyltransferase p300 and then assays for measuring the acetyltransferase activity by means of using the kit "HAT Colorimetric Assay" (BioVision) were carried out. This method consists of detecting NADH since peptide acetylation causes the release of the free form of Coenzyme A, which serves as an essential coenzyme for producing NADH.
The protein extracts were previously immunoprecipitated with an anti-p300 antibody and the acetyltransferase activity measured by the detection of NADH. The evaluation of the histone deacetylase (HDAC) activity (Figure 34 B) was carried out with protein extracts of HeLa cells treated with different concentrations of FM19G11. As a positive control, a fixed concentration of TSA (1 µM) was included and extracts of untreated cells were used as a control. The experiments were carried out following the instructions of the Biomol kit for detecting histone deacetylase activity (HDAC Fluorimetric Cellular Activity Assay, Biomol, Cat. No. AK-503). […]

Another experiment deals with epSPCs. The experiment can be described thus: differentiation of epSPCs into oligodendrocytes (immunocytochemistry). It counts as cell-based, rat. The note with it: 500 nM, 1% O2. The source says:
The hypoxic condition blocks stem cell differentiation, and it is well acknowledged that this process is due to the activity of the HIF proteins. The exposure of ependymal stem cells to a low concentration of oxygen (1% O2) prevents the progress of differentiation aimed at the oligodendrocyte glial strain, clearly shown by both the morphological characteristics of the culture and by the low expression of typical markers of this cell strain (NG2, RIP, 04).
The analysis of the expression of the cell markers Rip, NG2 and 04 in the presence or absence of FM19G11 under normoxic and/or hypoxic conditions was carried out by immunocytochemical techniques (Figure 15). After fixing the cell culture with paraformaldehyde (4%), it was permeabilized with Triton (0.05%) for 10 minutes, and after blocking non-specific bindings with fetal bovine serum (1%), it was incubated with the corresponding antibodies (acquired from Chemicon, USA). Secondary antibodies conjugated with different fluorochromes, rhodamine in rabbit IgG and fluorescein in mouse IgG, reveal the specific labeling of the primary antibodies. DAPI (Sigma Aldrich Co, UK) was used for the counterstaining of the nuclei.

Experiment [2] relates to Sox2, Oct4, Nanog, TGF-alpha, Notch1. The experiment is described as follows: expression of undifferentiated state markers in epSPCs (sqPCR, Western blot). It counts as cell-based, rat. The protocol: The primary culture of adult spinal cord ependymal neural progenitors (epSPC) was performed according to the conditions already set forth in Example 35.1.
Detection of the transcriptional and transductional expression levels of genes responsible for maintaining the undifferentiated state, Sox2, Oct4, Nanog, TGF-alpha: Total RNA was isolated using the commercial kit RNAeasy (Qiagen) and following the manufacturer's instructions. 1 µg of total RNA of each sample was retrotranscribed using the commercial kit Reverse Transcription Reagent (Applied Biosystem). The semiquantitative polymerase chain reaction (sqPCR) was carried out using the primers detailed below, for the amplification of the messenger RNAs of Sox2, Oct4, Nanog, TGF-alpha and GAPDH. The sqPCR was developed in an Eppendorf thermal cycler in a final volume of 50 µl, using 1 U of Taq Polymerase, 40 ng of cDNA (equivalent amount of total RNA), and 300 nM of each primer. The program chosen for the amplification was: [95°C, 3 min] x1, [55°C, 30 sec, 72°C, 5 min, 95°C 30 sec] x 35 and 72°C 10 min. The expression levels were viewed in a 1% agarose gel in 1x TAE buffer stained with ethidium bromide. The changes of expression due to the loading difference were corrected by the differential expression of the GAPDH constitutive expression gene. The experiments were performed in triplicate (with cells from three different rats).
The levels of proteins of the undifferentiated state markers Sox2, Oct4, Nanog and Notch1 were determined by immunological analysis (Western Blot) following the methodology described in Example 35.1. The primary antibodies for the detection of Sox2, Oct4, Nanog and Notch1 were acquired from Abcam (UK) and the expression of beta-actin (antibody acquired in Sigma Aldrich Co., UK) served as a loading control.

For `Cc1ccc(C(=O)COC(=O)c2cccc(NC(=O)c3ccc([N+](=O)[O-])cc3[N+](=O)[O-])c2)cc1` [FM19G11, 2-oxo-2-(p-tolyl)ethyl 3-((2,4-dinitro)benzamido)benzoate], in experiment [1], the “activity as a histone deacetylase inhibitor” value is “did not show activity”. Also, in the experiment on epSPCs, the “expression levels of the oligodendrocyte markers (NG2, RIP, 04) and phenotype” value is “recovers the expression levels”. For the same compound, the “messenger RNA of Sox2 and Oct4 and their target genes Nanog and TGF-α” value in experiment [2] (500 nM, 48 hours, 1% O2) is recorded as “down-regulation”. Also, the “expression of Sox2, Oct4, Nanog and Notch1” value in experiment [2] (500 nM, 48 hours, normoxic (~20% O2)) was “significantly induces”. Also, in experiment [2] (increasing concentrations, 1% O2), the “expression of both proteins, Sox2 and Oct4” value is “inhibits in a dose-dependent manner”. In addition, the “expression of the two isoforms of HIFα, p300, Sox2, Oct3/4 in ependymal cells” value in experiment [2] (physical hypoxic conditions) is given as “decrease”.
